This is an account of results in ChEMBL document CHEMBL4385643, “Design of a brain-penetrant CDK4/6 inhibitor for glioblastoma” (Bioorg Med Chem Lett, 2019).

In general, inhibition refers to the drop in the measured response relative to a control, in per cent.

Assay [1] concerns the target Serine/threonine-protein kinase 24 (Homo sapiens) (UniProt Q9Y6E0). Nature of the assay: Inhibition of recombinant full length human GST-tagged MST3 expressed in baculovirus expression system at 0.1 uM using serine/threonine-7 peptide as substrate incubated for 60 mins by Z'-LYTE assay relative to control.
For the next assay, the species on record is Homo sapiens. As to the kind of experiment: Inhibition of recombinant human His-tagged PKA catalytic domain (1 to 351 residues) expressed in Escherichia coli expression system at 0.1 uM using serine/threonine-1 peptide as substrate incubated for 60 mins by Z'-LYTE assay relative to control.
Assay [2] concerns the target Ribosomal protein S6 kinase alpha-1 (Homo sapiens) (UniProt Q15418). Nature of the assay: Inhibition of recombinant full length human His-tagged RSK1 expressed in baculovirus expression system at 0.1 uM using serine/threonine-6 peptide as substrate incubated for 60 mins by Z'-LYTE assay relative to control.
The target in assay [3] is Serine/threonine-protein kinase PAK 6 (Homo sapiens) (UniProt Q9NQU5). As to the kind of experiment: Inhibition of recombinant full length human His-tagged PAK6 expressed in baculovirus expression system at 0.1 uM using serine/threonine-20 peptide as substrate incubated for 60 mins by Z'-LYTE assay relative to control.
The target of assay [4] is Vascular endothelial growth factor receptor 1 (Homo sapiens) (UniProt P17948). Nature of the assay: Inhibition of recombinant human GST-tagged FLT1 catalytic domain (781 to 1338 residues) expressed in baculovirus expression system at 0.1 uM using tyrosine-4 peptide as substrate incubated for 60 mins by Z'-LYTE assay relative to control.
Sequence of Vascular endothelial growth factor receptor 1 (Homo sapiens) (P17948 whole entry, the tested form may be a part): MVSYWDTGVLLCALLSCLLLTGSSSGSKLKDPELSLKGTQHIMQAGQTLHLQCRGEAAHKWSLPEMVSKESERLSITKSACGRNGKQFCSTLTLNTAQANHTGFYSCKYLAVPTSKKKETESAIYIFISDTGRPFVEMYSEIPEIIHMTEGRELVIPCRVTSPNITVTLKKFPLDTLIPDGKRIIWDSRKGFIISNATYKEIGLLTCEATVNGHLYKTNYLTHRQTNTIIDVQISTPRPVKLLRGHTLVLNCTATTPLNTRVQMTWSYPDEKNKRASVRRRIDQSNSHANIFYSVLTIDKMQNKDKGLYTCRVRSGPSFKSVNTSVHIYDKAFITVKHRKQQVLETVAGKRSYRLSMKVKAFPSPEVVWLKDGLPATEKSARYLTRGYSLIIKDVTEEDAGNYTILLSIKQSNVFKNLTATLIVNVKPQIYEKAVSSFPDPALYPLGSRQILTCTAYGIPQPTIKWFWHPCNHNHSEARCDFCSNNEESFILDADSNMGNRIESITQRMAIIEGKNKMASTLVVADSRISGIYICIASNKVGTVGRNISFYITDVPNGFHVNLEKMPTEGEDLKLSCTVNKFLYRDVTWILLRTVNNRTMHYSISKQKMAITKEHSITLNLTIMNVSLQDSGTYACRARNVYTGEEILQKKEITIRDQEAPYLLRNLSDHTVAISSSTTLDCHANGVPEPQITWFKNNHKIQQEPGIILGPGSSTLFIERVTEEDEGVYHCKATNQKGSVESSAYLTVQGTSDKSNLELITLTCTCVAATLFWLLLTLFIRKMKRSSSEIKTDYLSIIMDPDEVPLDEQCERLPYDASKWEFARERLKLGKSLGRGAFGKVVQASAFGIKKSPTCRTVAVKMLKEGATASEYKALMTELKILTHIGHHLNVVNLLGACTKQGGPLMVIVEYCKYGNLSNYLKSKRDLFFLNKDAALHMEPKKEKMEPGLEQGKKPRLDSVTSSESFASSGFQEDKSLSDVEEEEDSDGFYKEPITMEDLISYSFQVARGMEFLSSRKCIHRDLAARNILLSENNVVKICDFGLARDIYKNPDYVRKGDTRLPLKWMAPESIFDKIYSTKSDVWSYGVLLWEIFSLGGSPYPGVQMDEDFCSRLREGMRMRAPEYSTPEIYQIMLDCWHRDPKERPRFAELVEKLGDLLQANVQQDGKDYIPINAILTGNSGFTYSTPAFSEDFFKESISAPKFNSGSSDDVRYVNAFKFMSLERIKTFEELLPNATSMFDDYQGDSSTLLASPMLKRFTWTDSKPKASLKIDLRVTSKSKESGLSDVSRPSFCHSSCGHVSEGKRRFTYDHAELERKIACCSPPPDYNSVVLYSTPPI
Assay [5] has as its target Mitogen-activated protein kinase kinase kinase 10 (Homo sapiens) (UniProt Q02779). Nature of the assay: Inhibition of tracer 236 binding to recombinant full length human GST-tagged MLK2 expressed in baculovirus expression system at 0.1 uM measured after 60 mins by Lanthascreen assay. For orientation: Time-resolved FRET reads energy transfer from a long-lived donor to a nearby acceptor.

The target of assay [6] is Mitogen-activated protein kinase 9 (Homo sapiens) (UniProt P45984). Nature of the assay: Inhibition of recombinant full length human His-tagged JNK2 expressed in baculovirus expression system at 0.1 uM using serine/threonine-4 peptide as substrate incubated for 60 mins by Z'-LYTE assay relative to control.
Sequence of Mitogen-activated protein kinase 9 (Homo sapiens) (P45984 whole entry, looked up): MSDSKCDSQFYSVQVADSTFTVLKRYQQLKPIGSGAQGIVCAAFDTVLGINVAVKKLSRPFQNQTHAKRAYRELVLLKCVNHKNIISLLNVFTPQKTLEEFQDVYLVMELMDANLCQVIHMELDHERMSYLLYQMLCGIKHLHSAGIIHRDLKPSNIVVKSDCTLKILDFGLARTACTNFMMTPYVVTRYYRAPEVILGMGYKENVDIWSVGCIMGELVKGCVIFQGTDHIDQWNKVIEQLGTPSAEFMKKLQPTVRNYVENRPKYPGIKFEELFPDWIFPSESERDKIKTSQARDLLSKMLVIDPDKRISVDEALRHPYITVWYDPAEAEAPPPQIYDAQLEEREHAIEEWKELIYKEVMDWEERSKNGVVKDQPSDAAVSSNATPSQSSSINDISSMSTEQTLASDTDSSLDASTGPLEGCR
Assay [7] addresses Serine/threonine-protein kinase 17A (Homo sapiens) (UniProt Q9UEE5). Nature of the assay: Inhibition of tracer 236 binding to recombinant full length human GST-tagged DRAK1 expressed in baculovirus expression system at 0.1 uM measured after 60 mins by Lanthascreen assay relative to control.
Assay [8] addresses Mitogen-activated protein kinase 13 (Homo sapiens) (UniProt O15264). As to the kind of experiment: Inhibition of recombinant full length human His-tagged p38delta expressed in baculovirus expression system at 0.1 uM using serine/threonine-3 peptide as substrate incubated for 60 mins by Z'-LYTE assay relative to control.
For assay [9], the target named is Homeodomain-interacting protein kinase 4 (Homo sapiens) (UniProt Q8NE63). Nature of the assay: Inhibition of recombinant full length human GST-tagged HIPK4 expressed in baculovirus expression system at 0.1 uM using serine/threonine-18 peptide as substrate incubated for 60 mins by Z'-LYTE assay relative to control.
For assay [10], the target named is Casein kinase I isoform epsilon (Homo sapiens) (UniProt P49674). As to the kind of experiment: Inhibition of recombinant full length human His-tagged CK1 epsilon1 expressed in baculovirus expression system at 0.1 uM using serine/threonine-11 peptide as substrate incubated for 60 mins by Z'-LYTE assay relative to control.
Assay [11] has as its target Tyrosine-protein kinase FRK (Homo sapiens) (UniProt P42685). As to the kind of experiment: Inhibition of recombinant full length human GST-tagged FRK expressed in baculovirus expression system at 0.1 uM using tyrosine-1 peptide as substrate incubated for 60 mins by Z'-LYTE assay relative to control.
Assay [12] addresses Tyrosine-protein kinase TXK (Homo sapiens) (UniProt P42681). Nature of the assay: Inhibition of recombinant human GST-tagged TXK catalytic domain (260 to 527 residues) expressed in baculovirus expression system at 0.1 uM using tyrosine-6 peptide as substrate incubated for 60 mins by Z'-LYTE assay relative to control.
Assay [13] addresses Serine/threonine-protein kinase 4 (Homo sapiens) (UniProt Q13043). Nature of the assay: Inhibition of recombinant full length human GST-tagged MST1 expressed in baculovirus expression system at 0.1 uM using serine/threonine-7 peptide as substrate incubated for 60 mins by Z'-LYTE assay relative to control.
Assay [14] deals with Insulin receptor (Homo sapiens) (UniProt P06213). Nature of the assay: Inhibition of recombinant human GST-tagged INSR (1011 to 1382 residues) expressed in baculovirus expression system at 0.1 uM using tyrosine-1 peptide as substrate incubated for 60 mins by Z'-LYTE assay relative to control.
Sequence of Insulin receptor (Homo sapiens) (P06213 28-758 limits assumed): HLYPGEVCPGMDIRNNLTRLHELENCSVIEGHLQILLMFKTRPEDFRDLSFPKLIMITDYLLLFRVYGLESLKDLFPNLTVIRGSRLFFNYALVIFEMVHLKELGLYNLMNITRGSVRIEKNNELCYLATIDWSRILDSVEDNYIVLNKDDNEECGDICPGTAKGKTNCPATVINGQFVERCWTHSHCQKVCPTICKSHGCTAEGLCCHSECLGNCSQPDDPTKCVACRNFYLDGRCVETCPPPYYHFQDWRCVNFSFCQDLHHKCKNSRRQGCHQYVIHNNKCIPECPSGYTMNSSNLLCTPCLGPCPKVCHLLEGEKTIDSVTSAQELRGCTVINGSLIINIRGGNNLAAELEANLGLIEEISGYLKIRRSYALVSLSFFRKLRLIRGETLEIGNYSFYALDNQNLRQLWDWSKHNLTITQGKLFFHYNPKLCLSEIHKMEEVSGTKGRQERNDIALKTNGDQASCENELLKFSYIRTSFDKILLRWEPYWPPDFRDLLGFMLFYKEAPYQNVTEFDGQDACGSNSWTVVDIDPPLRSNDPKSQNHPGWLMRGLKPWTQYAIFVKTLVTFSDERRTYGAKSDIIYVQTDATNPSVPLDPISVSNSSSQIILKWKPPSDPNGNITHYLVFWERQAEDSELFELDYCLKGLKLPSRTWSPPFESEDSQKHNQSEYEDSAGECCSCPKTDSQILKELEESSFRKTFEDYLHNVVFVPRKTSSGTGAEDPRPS
Sequence of Insulin receptor (Homo sapiens) (P06213 763-1382 limits assumed): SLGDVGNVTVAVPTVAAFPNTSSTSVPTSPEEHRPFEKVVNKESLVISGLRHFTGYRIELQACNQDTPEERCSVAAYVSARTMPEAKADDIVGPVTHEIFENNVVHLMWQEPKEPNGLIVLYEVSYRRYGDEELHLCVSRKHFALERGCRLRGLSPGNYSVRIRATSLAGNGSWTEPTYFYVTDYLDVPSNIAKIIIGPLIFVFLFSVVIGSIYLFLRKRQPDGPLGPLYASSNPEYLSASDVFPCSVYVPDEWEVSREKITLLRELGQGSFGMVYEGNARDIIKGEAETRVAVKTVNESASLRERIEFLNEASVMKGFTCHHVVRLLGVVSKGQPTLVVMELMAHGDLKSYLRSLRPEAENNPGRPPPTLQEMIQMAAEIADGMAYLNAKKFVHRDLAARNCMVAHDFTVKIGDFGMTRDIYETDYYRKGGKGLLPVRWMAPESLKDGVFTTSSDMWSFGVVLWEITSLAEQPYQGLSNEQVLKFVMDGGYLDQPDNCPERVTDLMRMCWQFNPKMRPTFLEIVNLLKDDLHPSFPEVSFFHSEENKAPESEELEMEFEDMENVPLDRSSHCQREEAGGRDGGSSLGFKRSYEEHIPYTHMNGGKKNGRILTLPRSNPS
Assay [15] addresses Tyrosine-protein kinase Fes/Fps (Homo sapiens) (UniProt P07332). As to the kind of experiment: Inhibition of recombinant full length human His-tagged FES (FPS) expressed in baculovirus expression system at 0.1 uM using tyrosine-1 peptide as substrate incubated for 60 mins by Z'-LYTE assay relative to control.
The target of assay [16] is Proto-oncogene tyrosine-protein kinase receptor Ret (Homo sapiens) (UniProt P07949). Nature of the assay: Inhibition of recombinant human GST-tagged RET (658 to 1114 residues) expressed in baculovirus expression system at 0.1 uM using tyrosine-2 peptide as substrate incubated for 60 mins by Z'-LYTE assay relative to control.
Assay [17] deals with Epidermal growth factor receptor (Homo sapiens) (UniProt P00533). Nature of the assay: Inhibition of recombinant human GST-tagged EGFR (668 to 1210 residues) expressed in baculovirus expression system at 0.1 uM using tyrosine-4 peptide as substrate incubated for 60 mins by Z'-LYTE assay relative to control.
Assay [18] concerns the target Tyrosine-protein kinase Yes (Homo sapiens) (UniProt P07947). Nature of the assay: Inhibition of recombinant full length human GST-tagged YES expressed in baculovirus expression system at 0.1 uM using tyrosine-2 peptide as substrate incubated for 60 mins by Z'-LYTE assay relative to control.
The target of assay [19] is Serine/threonine-protein kinase SIK2 (Homo sapiens) (UniProt Q9H0K1). As to the kind of experiment: Inhibition of recombinant full length human GST-tagged SIK2 expressed in baculovirus expression system at 0.1 uM using serine/threonine-25 peptide as substrate incubated for 60 mins by Z'-LYTE assay relative to control.
The target in assay [20] is Megakaryocyte-associated tyrosine-protein kinase (Homo sapiens) (UniProt P42679). As to the kind of experiment: Inhibition of recombinant full length human His-tagged HYL expressed in Escherichia coli expression system at 0.1 uM using tyrosine-1 peptide as substrate incubated for 60 mins by Z'-LYTE assay relative to control.
Assay [21] has as its target Tyrosine-protein kinase ZAP-70 (Homo sapiens) (UniProt P43403). As to the kind of experiment: Inhibition of recombinant full length human His-tagged ZAP70 expressed in baculovirus expression system at 0.1 uM using tyrosine-7 peptide as substrate incubated for 60 mins by Z'-LYTE assay relative to control.
The target in assay [22] is Serine/threonine-protein kinase MARK1 (Homo sapiens) (UniProt Q9P0L2). As to the kind of experiment: Inhibition of recombinant full length human GST-tagged MARK1 expressed in baculovirus expression system at 0.1 uM using serine/threonine-21 peptide as substrate incubated for 60 mins by Z'-LYTE assay relative to control.
The target of assay [23] is Protein kinase C alpha type (Homo sapiens) (UniProt P17252). Nature of the assay: Inhibition of recombinant human GST-tagged PKCalpha expressed in insect expression system at 0.1 uM using serine/threonine-7 peptide as substrate incubated for 60 mins by Z'-LYTE assay relative to control.

Sequence of Tyrosine-protein kinase TXK (Homo sapiens) (P42681 whole entry, the tested form may be a part): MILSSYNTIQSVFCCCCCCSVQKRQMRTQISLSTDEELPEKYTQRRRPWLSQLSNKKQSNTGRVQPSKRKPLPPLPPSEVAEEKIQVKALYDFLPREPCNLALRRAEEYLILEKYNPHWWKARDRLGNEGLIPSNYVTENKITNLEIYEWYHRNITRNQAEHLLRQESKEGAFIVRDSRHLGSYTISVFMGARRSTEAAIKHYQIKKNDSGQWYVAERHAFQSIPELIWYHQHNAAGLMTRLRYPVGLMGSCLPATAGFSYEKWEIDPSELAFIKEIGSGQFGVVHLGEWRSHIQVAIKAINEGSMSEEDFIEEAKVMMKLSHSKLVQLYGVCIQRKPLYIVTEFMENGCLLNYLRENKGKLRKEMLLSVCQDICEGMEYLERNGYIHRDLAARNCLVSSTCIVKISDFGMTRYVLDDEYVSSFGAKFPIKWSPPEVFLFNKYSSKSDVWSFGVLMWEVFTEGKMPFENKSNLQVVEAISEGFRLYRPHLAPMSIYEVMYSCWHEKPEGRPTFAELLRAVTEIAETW
Sequence of Serine/threonine-protein kinase 17A (Homo sapiens) (Q9UEE5 whole entry): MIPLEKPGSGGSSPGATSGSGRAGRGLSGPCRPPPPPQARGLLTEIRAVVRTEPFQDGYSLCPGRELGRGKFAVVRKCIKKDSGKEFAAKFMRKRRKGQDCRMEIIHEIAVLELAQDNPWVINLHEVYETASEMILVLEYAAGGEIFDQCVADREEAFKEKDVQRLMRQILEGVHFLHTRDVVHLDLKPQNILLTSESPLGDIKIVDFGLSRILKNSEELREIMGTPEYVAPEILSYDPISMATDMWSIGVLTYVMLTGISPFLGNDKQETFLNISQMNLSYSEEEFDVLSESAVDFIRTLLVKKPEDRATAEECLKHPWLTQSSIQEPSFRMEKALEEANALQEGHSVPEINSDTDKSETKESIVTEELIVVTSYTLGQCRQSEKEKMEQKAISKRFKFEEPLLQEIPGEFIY

Consider `CCN1CCN(Cc2ccc(Nc3ncc(F)c(-c4cc(F)c5nc(C)n(C(C)C)c5c4)n3)nc2)CC1` [ABEMACICLIB], for which the inhibition in assay [1] amounted to 17%; in the assay listed under Homo sapiens, 5%; in [2], 8%; in [3] it was 1%; in [4] it was 3%; in [5], 10.6%. For the same compound, the inhibition came out at 25.5% in assay [6]; 56.2% in assay [7]; 7% in assay [8]; 30% in assay [9]; 8% in assay [10]; 5.5% in [11]. Moreover, the inhibition was determined as 6.5% in assay [12]; 1.5% in assay [13]; 3.5% in assay [14]; 11% in [15]; 5.5% in assay [16]; 4% in [17]. For the same compound, the inhibition in [18] is 9%; in assay [19] it was 6%; in assay [20] it was 0%; in assay [21], -0.5%; in [22], 6%; in assay [23], 77.5%.
As to `CCN1CC2(C1)CN(c1ccc(Nc3ncc(F)c(-c4cnn5c4[C@H](C)CCCC5)n3)nc1)C2`, the inhibition is 18.5% in assay [1]; 4% in the assay filed under Homo sapiens; 19.5% in assay [2]; 3% in assay [3]; 2.5% in assay [4]; 18% in [5]. Also, the inhibition in assay [6] was found to be 61.5%; in [7], 72%; in assay [8], 3.5%; in assay [9], 8%; in assay [10], 7.5%; in [11], 1.5%. For the same compound, the inhibition in assay [12] is -1%; in assay [13], 8%; in assay [14], -1.5%; in assay [15] it was 19%; in assay [16], 13.5%; in assay [17], 0%. Moreover, the inhibition in [18] was 8.5%; in assay [19] it was 26.5%; in [20], -0.5%; in assay [21], 7%; in assay [22], 16.5%; in assay [23] it was 33%.
